Format in all cases: functional, cell-based
Experiment [1] has as its target Delta-type opioid receptor (Homo sapiens) (UniProt P41143). The experiment is described as follows: Antagonist activity at human delta opioid receptor expressed in CHO cells assessed as inhibition of DPDPE stimulated [35S]GTPgammaS binding.
Experiment [2] concerns the target Kappa-type opioid receptor (Homo sapiens) (UniProt P41145). Nature of the experiment: Antagonist activity at human kappa opioid receptor expressed in CHO cells assessed as inhibition of U69,593 stimulated [35S]GTPgammaS binding.
The target in experiment [3] is Mu-type opioid receptor (Homo sapiens) (UniProt P35372). Nature of the experiment: Antagonist activity at human mu opioid receptor expressed in CHO cells assessed as inhibition of DAMGO stimulated [35S]GTPgammaS binding.
Chain of Mu-type opioid receptor (Homo sapiens) (P35372 whole entry): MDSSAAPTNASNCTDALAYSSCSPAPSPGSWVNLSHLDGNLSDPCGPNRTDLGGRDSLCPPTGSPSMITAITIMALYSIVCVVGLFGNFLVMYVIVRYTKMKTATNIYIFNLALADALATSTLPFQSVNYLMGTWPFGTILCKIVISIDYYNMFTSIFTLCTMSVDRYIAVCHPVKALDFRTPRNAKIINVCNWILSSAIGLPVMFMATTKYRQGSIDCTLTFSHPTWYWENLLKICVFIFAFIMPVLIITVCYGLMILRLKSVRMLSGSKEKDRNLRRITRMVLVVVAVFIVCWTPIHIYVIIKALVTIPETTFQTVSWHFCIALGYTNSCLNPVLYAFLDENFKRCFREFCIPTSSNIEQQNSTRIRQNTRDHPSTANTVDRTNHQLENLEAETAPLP

Chain of Kappa-type opioid receptor (Homo sapiens) (P41145 whole entry): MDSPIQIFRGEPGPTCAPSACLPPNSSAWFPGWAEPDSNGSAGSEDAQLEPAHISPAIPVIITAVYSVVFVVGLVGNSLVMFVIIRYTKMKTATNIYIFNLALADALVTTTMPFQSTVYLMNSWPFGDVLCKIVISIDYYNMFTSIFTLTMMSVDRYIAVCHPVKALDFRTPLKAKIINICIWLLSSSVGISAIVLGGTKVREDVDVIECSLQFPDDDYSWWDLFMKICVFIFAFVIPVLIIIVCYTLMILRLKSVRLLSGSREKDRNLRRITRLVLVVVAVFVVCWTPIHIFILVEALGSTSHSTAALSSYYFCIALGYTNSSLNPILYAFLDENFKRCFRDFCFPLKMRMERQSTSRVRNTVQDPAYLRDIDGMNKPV
Chain of Delta-type opioid receptor (Homo sapiens) (P41143 whole entry): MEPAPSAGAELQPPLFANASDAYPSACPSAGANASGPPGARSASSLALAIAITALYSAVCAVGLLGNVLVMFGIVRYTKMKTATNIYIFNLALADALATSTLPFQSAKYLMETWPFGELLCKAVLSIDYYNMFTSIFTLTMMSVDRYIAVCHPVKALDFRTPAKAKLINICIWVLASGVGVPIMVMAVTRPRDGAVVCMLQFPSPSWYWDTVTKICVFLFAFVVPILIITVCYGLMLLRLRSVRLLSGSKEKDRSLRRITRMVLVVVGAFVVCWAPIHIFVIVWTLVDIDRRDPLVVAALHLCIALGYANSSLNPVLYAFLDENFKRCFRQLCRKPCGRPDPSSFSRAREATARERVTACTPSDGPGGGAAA

As to `C[C@@H]1CN(c2cccc(O)c2)[C@@H](C)CN1CCCc1ccccc1`, the Ke in experiment [1] was 55.3 nM; in experiment [2], 4.25 nM; in experiment [3] it was 6.14 nM.
In the case of `C[C@H]1CN(C)CCN1c1cccc(O)c1`, the Ke in experiment [1] was > 10000 nM; in experiment [2], 194 nM; in experiment [3] it was 508 nM.
As for `C[C@@H]1CN(CCCc2ccccc2)CCN1c1cccc(O)c1`, the Ke in experiment [1] amounted to 6.99 nM; in experiment [2], 1.57 nM; in experiment [3] it was 1.01 nM.
Turning to `C[C@H]1CN(CCCc2ccccc2)CCN1c1cccc(O)c1`, the Ke in experiment [1] came to 13.4 nM; in experiment [2], 4.09 nM; in experiment [3], 0.88 nM.
Turning to `C[C@H]1CN(C)CC[C@@]1(C)c1cccc(O)c1` (relative stereo), in experiment [3], the Ke came out at 29.3 nM.
On to `Oc1cccc(N2CCN(CCCc3ccccc3)CC2)c1`, for which the Ke stood at 34.3 nM in experiment [1], 36.8 nM in experiment [2] and 8.47 nM in experiment [3].
As to `C[C@H]1CN(c2cccc(O)c2)[C@@H](C)CN1CCCc1ccccc1`, the results for the Ke in experiment [1], in experiment [2] and in experiment [3] were 23.4 nM, 19.5 nM and 17.9 nM, respectively.
Turning to `C[C@@H]1CN(CCCc2ccccc2)[C@@H](C)CN1c1cccc(O)c1`, the Ke in experiment [1] came to 180 nM; in experiment [2], 22.9 nM; in experiment [3], 18 nM.
On to `C[C@H]1CN(CCCc2ccccc2)CC[C@@]1(C)c1cccc(O)c1`, for which the results for the Ke in experiment [1], in experiment [2] and in experiment [3] were 0.9 nM, 0.88 nM and 0.1 nM, respectively.
In the case of `C[C@H]1CN(CCCc2ccccc2)C[C@H](C)N1c1cccc(O)c1`, the values for the Ke in experiment [1], in experiment [2] and in experiment [3] were 9000 nM, 123 nM and 1650 nM, respectively.

The record behind these values is ChEMBL document CHEMBL1773029, “1-Substituted 4-(3-Hydroxyphenyl)piperazines Are Pure Opioid Receptor Antagonists” (ACS Med Chem Lett, 2010).
